Like-named read-outs stand apart in the source and are kept apart here.
How the values were obtained:
[1] = system: BxPC3 cells; assay: Histone acetylation in BxPC3 cells after drug treatment; format: cell-based, human; details: for EC50: read-out: apparent EC50 for activation; for Mean fold-change in acetylation: TSA 0.5 μM
[2] = target: CBP (Homo sapiens, UniProt Q92793); assay: C646 titration of CBP acetylation of H3/H4 under kcat conditions; format: biochemical
CBP, sequence (Q92793 whole entry): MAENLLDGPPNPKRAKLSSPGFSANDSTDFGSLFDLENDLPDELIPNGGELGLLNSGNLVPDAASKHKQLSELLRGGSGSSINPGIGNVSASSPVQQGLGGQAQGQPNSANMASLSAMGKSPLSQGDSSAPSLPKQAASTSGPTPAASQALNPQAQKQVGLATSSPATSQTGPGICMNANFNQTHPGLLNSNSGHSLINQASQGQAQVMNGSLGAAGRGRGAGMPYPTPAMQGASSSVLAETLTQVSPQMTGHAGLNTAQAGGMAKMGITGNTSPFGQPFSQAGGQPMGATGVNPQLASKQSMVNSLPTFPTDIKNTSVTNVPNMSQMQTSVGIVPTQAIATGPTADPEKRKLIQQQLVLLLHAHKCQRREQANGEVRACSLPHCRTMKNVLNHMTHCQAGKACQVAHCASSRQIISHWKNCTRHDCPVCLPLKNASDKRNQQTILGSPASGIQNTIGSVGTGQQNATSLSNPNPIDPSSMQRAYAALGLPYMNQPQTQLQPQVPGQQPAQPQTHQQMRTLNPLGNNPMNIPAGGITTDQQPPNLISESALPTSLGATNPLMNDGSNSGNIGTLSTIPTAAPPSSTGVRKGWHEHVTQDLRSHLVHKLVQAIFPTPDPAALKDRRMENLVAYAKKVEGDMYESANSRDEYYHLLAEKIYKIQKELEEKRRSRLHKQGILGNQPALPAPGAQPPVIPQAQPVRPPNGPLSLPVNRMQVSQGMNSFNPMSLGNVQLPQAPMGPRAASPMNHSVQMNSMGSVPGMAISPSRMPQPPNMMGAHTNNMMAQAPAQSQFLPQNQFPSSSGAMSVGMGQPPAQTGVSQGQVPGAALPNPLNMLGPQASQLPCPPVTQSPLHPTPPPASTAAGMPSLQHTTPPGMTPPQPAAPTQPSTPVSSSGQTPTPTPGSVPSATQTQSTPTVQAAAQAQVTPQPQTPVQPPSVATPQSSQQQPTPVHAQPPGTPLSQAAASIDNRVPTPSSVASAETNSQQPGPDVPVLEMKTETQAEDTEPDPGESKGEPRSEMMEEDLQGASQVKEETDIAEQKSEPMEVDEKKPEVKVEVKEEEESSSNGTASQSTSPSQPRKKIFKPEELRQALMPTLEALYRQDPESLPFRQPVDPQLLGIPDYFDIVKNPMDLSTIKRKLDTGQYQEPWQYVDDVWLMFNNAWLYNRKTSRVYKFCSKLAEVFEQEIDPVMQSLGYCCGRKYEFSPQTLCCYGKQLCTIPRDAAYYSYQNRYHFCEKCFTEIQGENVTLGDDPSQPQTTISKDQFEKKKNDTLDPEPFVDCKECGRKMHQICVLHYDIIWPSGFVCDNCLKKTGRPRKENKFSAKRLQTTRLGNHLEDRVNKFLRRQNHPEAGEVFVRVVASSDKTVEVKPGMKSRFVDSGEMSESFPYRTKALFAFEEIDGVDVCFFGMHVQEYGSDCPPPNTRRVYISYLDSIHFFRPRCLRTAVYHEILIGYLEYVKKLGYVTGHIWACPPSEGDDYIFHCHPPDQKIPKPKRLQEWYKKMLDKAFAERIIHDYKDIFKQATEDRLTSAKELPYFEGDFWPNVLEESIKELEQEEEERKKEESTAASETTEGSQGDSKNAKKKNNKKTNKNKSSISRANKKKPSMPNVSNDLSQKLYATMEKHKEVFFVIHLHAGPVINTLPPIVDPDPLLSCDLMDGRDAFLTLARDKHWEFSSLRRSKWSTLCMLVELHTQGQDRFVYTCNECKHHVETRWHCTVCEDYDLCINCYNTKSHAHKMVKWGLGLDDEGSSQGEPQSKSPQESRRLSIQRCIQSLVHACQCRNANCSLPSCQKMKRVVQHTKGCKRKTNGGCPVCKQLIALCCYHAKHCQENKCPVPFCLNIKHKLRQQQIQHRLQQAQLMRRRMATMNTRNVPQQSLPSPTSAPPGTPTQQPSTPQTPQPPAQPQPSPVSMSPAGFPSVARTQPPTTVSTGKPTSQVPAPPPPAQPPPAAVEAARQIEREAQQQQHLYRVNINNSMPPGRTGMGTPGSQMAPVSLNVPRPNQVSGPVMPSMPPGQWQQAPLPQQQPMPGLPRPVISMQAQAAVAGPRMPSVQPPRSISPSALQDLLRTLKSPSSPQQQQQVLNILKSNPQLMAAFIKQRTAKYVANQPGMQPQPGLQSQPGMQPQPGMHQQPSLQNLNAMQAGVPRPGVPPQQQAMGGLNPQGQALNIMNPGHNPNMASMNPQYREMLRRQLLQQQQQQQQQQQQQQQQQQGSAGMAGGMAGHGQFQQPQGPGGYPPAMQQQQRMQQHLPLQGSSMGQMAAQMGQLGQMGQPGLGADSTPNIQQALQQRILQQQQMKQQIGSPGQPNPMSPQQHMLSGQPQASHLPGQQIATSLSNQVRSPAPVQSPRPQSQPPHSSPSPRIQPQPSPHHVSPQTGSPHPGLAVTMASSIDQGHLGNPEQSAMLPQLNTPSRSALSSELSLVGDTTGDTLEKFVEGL

CC1=NN(c2ccc(C(=O)O)cc2)C(=O)/C1=C\c1ccc(-c2cc(C)c(C)cc2[N+](=O)[O-])o1 [C646]
stimulation of acetylation in parental BxPC3 cells ([1]; parental cells, compared with p300-depleted cells): ≤ 2.5 fold | EC50 ([1]; site H3K18, 4 hours): ~400 nM | EC50 ([1]; site H3K23, 4 hours): ~400 nM | IC50 ([1]; read-out: apparent IC50 of inhibition, site H3K18, 4 hours): ~6800 nM | C646 concentration range inhibiting CBP ([2]; compared with p300): within the nanomolar range | effect of C646 on CBP acetylation activity ([2]; kcat conditions, other sites mainly displayed an inhibitory effect): biphasic dependence for H3K18

CC(C)(CCCCCCCCCCC(C)(C)CC(=O)O)CC(=O)O [MEDICA 16, beta, beta’-tetramethylhexadecanedioic acid]
effect of MEDICA 16 pretreatment on the acetylation response to C646 ([1]; 5 μM MEDICA 16 for 24 hours prior to […] C646): muted stimulatory response to C646

CC(/C=C/C(=O)NO)=C\[C@@H](C)C(=O)c1ccc(N(C)C)cc1 [TSA]
Mean fold-change in acetylation ([1]; site H3K9, 4 hours, after 16 hours of serum starvation): 3.02 fold | Mean fold-change in acetylation ([1]; site H3K9, 4 hours, no starvation): 68.56 fold | increase of acetylation relative to C646 ([1]; site H3K9, TSA versus C646): 42 fold | Mean fold-change in acetylation ([1]; site H3K14, 4 hours, after 16 hours of serum starvation): 1.65 fold | Mean fold-change in acetylation ([1]; site H3K14, 4 hours, no starvation): 2.412 fold | Mean fold-change in acetylation ([1]; site H3K18, 4 hours, after 16 hours of serum starvation): 1.94 fold | Mean fold-change in acetylation ([1]; site H3K23, 4 hours, after 16 hours of serum starvation): 1.78 fold | Mean fold-change in acetylation ([1]; site H3K23, 4 hours, no starvation): 2.83 fold

Source: article PMC4327817 (ACS chemical biology, 2014)
